Results from patent publication US10005844B2, “Polynucleotides encoding anti-Notch1 NRR antibody polypeptides” (Genentech, Inc., priority 2007, dated 2018).

Columns and labels:
Assay type in all cases: cell-based
[1] = tested on: OVCAR-3; assay: CellTiter-Glo Luminescent Cell Viability Assay, OVCAR-3; settings: ovarian cancer cell line, FIG. 17
Text: (§1) The effects of anti-Notch1 NRR and the gamma secretase inhibitors DAPT and “Compound E” (CmpE) on a panel of cancer cell lines were examined. […] This assay determines the number of viable cells in culture based on quantitation of ATP present, which is an indication of metabolically active cells. Luminescence is quantified as “relative luminescent units” in FIG. 17 (y-axis).

[2] = tested on: Mouse C2C12 myoblasts; assay: C2C12 myoblast differentiation assay; settings: Antibody A 200 ng/ml, Compound E 1 uM, four days, FIG. 9 and 10
Method: Mouse C2C12 myoblasts differentiate into myotubes when treated with differentiation medium. Co-culture with Jagged1 ligand-expressing cells inhibits differentiation by stimulating Notch signaling.
In particular, mouse C2C12 myoblast cells were plated in a 24-well tissue culture dish with a sterile round, 10 mm cover slip in the bottom at 2.5×10^4 cells per ml, using 1 ml per well. Cells were allowed to attach and grow for 22 hours in growth medium (DMEM with 10% FBS) at 37° C., 5% CO2. The growth medium was then aspirated and differentiation medium (DM) was added (DMEM with 6% Horse Serum). Cells were treated with: A. DM alone; B. DM with 3T3-J1 cells; C. […] Cells were incubated at 37° C., 5% CO2 under these conditions for four days. Cover slips were retrieved, and cells were fixed with 4% paraformaldehyde and permeablized with 0.2% Triton X-100 in PBS. Cells were then blocked with 10% FBS in PBS. An antibody recognizing Myosin Heavy Chain (Millipore, Anti-Myosin HC, clone A4.1025 ascites) and a goat anti-mouse IgG (H+L) secondary antibody conjugated to Alexa® 488 (Molecular Probes) was used to stain the differentiated myotubes. DAPI was used to counter-stain the nuclei. Images of three different fields were taken for each condition. Metamorph software (Molecular Devices) was used to count the number of nuclei and the area of Alexa® 488 stain. […]

[3] = tested on: MT-3; assay: CellTiter-Glo Luminescent Cell Viability Assay, MT-3; settings: breast carcinoma line, FIG. 17
Text: as §1

Row | Structure (SMILES) | Cell viability (ATP levels), OVCAR-3 [1] | Differentiation of C2C12 myoblasts blocked by Jagged1 co-culture [2] | Cell viability (ATP levels), MT-3 [3]
1 | C[C@H](NC(=O)Cc1cc(F)cc(F)c1)C(=O)N[C@H]1N=C(c2ccccc2)c2ccccc2N(C)C1=O [Compound E] | reduced ATP levels | restored differentiation | reduced ATP levels
2 | C[C@H](NC(=O)Cc1cc(F)cc(F)c1)C(=O)N[C@H](C(=O)OC(C)(C)C)c1ccccc1 [DAPT, N—[N-(3,5-difluorophenacetyl)-L-alanyl]-S-phenylglycine t-butyl ester] | reduced ATP levels | – | reduced ATP levels
